Reference: patent US8129527B2, “Analogs of dehydrophenylahistins and their therapeutic use” (Nereus Pharmacuticals, Inc., priority 2006, dated 2012)
Values joined by “and” are separate entries in the source; they are usually repeats but may differ in a detail not shown here. Equal values may be shown once. Read-outs that look alike come from different tables or passages of the source.

Key:
[1] = tested on: Trichophyton mentagrophytes; test: Antifungal susceptibility testing, broth dilution (MIC/MFC); assay type: cell-based; conditions: in words
Experimental: Specifically, disclosed compounds were evaluated alongside commercially available microtubulin inhibitors as well as recognized antifungal agents. […].
Microorganisms against which these compounds were tested included: Candida albicans, Candida glabrata, Aspergillus fumigatus, Trichophyton rubrum, Trichophyton mentagrophytes, Epidermophyton floccosum. With the exception of Candida glabrata (one isolate), two isolates of each species were tested.
Drug concentrations were 0.03-16 μg/ml for the investigational compounds, 0.015-8 μg/ml for itraconazole and griseofulvin.
The minimum lethal concentration (MLC) was determined by plating […] from the MIC concentration and each concentration above the MIC. […] When a MIC was obtained, a minimum fungicidal concentration (MFC) was determined to assess the fungistatic/fungicidal nature of the compound. […] The compound is scored as fungistatic if the cells are able to resume growth and fungicidal if no regrowth is possible because the compound had killed the organisms.

[2] = tested on: Jurkat cells (human T cell leukemia line); test: DNA fragmentation (DNA laddering); assay type: cell-based
Source text: A late stage characteristic of apoptosis is internucleosomal DNA cleavage that results in a distinctive ladder pattern that can be visualized by gel electrophoresis.

Aspergillus fumigatus = test: Antifungal susceptibility testing, broth dilution (MIC/MFC); assay type: cell-based; conditions: Aspergillus fumigatus, read-out: MIC
In short: (§1)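 Tested against two isolates per species (one for C. glabrata). After MIC, fungicidal concentration determined by plating 0.1 μl from MIC and each higher concentration.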

Trichophyton rubrum = test: as above; assay type: cell-based; conditions: in words
In short: as §1

Candida glabrata = test: as above; assay type: cell-based; conditions: Nakaseomyces glabratus; C. glabrata; read-out: MIC
In short: as §1

Candida albicans = test: as above; assay type: cell-based; conditions: Candida albicans; C. albicans 90028; read-out: MIC
In short: as §1

HT-29 human colon cells = test: Tumor cytotoxicity assay, resazurin fluorescence, 48 h (Example 6); assay type: cell-based
[3] = tested on: PC-3 prostatic adenocarcinoma cells; test: as above; assay type: cell-based, human; conditions: Homo sapiens; Table 2; read-out: EC50 (nM) PC-3
Experimental: 10× concentrated serial dilutions of the two compounds were prepared in appropriate culture medium for final concentrations ranging from 2.0×10^−5 M to 2.0×10^−10 M. Ten μl volumes of the 10× serial dilutions were added to the test wells in triplicate and the plates returned to the incubator for 48 hours.
Following 48 hours of drug exposure 10 μl of 0.2 mg/ml resazurin (obtained from Sigma-Aldrich Chemical Co.) in Mg^2+, Ca^2+ free PBS was added to each well and the plates were returned to the incubator for 3-4 hours. […] Resazurin dye without cells was used to determine the background, which was subtracted from the data for all experimental wells. The data were analyzed using Prism software (GraphPad Software).
PC-3, a human prostate adenocarcinoma, was maintained in F12K complete medium (F12K medium supplemented with 10% FBS; 2 mM Glutamine; 1% HEPES; and Pen/Strep at 100 IU/ml and 100 µg/ml, respectively).

[4] = tested on: P388 murine leukemia cells; test: Cytotoxic effect in P388 cells; assay type: cell-based; conditions: Mus musculus, P388, read-out: IC50 (nM) P-388; Table 2
Source text: The cytotoxic effects of phenylahistin, dehydrophenylahistin and various derivatives of dehydrophenylahistin were examined in P388 murine leukemia cells, HT-29 human colon cells, and PC-3 prostatic adenocarcinoma cells.

HuVEC = test: Action on microtubule function, α-tubulin staining; conditions: 2 μM, thirty minutes exposure
[5] = tested on: MES-SA/Dx5 (Taxol Resistant) human uterine sarcoma; test: Drug resistant cell line pair, cytotoxicity (Example 10B); assay type: cell-based
Source text: (§2) 1) Human Uterine Sarcoma Tumor Cell Line Pair: MES-SA (Taxol Sensitive) and MES-SA/Dx5 (Taxol Resistant).

[6] = tested on: MES-SA (Taxol Sensitive) human uterine sarcoma; test: as above; assay type: cell-based; conditions: IC50 CsA Pretreat relative to No CsA
Source text: as §2

[7] = tested on: MCF-7 (Taxol Sensitive) human breast carcinoma; test: as above; assay type: cell-based
Source text: (§3) 3). Human Breast Carcinoma Cell Line Pair: MCF-7 (Taxol Sensitive) and MCF-7/ADR (Taxol Resistant)

[8] = tested on: MCF-7/ADR (Taxol Resistant) human breast carcinoma; test: as above; assay type: cell-based
Source text: as §3

MCF-7 human breast tumor = test: MCF-7 Human Breast Tumor Xenograft Model; assay type: in vivo, nude mice; conditions: Breast MCF-7 (2 studies); Taxotere Days 1, 3, 5 alone
Experimental: (§4) Animals used were (exceptions are indicated for individual studies): female nude mice (nu/nu) between 5 and 6 weeks of age (˜20 g, Harlan); group size was 9-10 mice per group unless otherwise indicated.
(§5) Selected novel compounds were administered as monotherapy via the intraperitoneal (i.p.) route at the doses indicated for the individual study; for the combination studies the selected reference chemotherapy agents were injected 15-30 min prior to the compound.
(§6) Saline dilutions are used to achieve the injection concentrations used for the reference compounds.
Female nude mice (˜20 g) were implanted s.c. with 21-day release estrogen (0.25 mg) pellets 24 hours prior to the s.c. implantation with MCF-7 tumor fragments (harvested from s.c. tumors in nude mice hosts). The study then proceeded as described for the HT-29 model, using taxotere as the standard chemotherapy agent.
In this model unless otherwise noted for the individual study, the novel compounds were injected via the intraperitoneal route daily on Days 1-5, inclusive (qdx5); taxotere was administered intravenously on Days 1, 3 and 5 (qodx3).
The doses of the compounds were administered on Days 1, 2, 3, 4, and 7; Taxotere was administered on Days 1, 3 and 7.

[9] = tested on: DU-145 human prostate tumor; test: DU-145 Human Prostate Tumor Xenograft Model; assay type: in vivo, nude mice; conditions: taxotere alone
Experimental: When the tumors reached 5 mm×5 mm (at about 13-17 days) the animals were matched into treatment and control groups.
In this model unless otherwise noted for the individual study, test compounds were administered via the intraperitoneal route on Days 1, 3, 5, 8 and 11 (q3dx5); taxotere was administered intravenously on Days 1, 3 and 5 (q2dx3).

[10] = tested on: A549 human non small cell lung tumor; test: A549 Human Lung Tumor Xenograft Model; assay type: in vivo, nude mice
Experimental: as §4, §5, §6
Animals were implanted s.c. by trocar with fragments of A549 tumors harvested from s.c. growing tumors in nude mice hosts. When the tumor size reached 5 mm×5 mm (about 10-17 days) the animals were matched into treatment and control groups.

Jurkat cells = test: cells; assay type: cell-based
[11] = tested on: HL-60/MX-2 (Mitoxantrone-Resistant); test: Drug resistant cell line pair, cytotoxicity (Example 10B); assay type: cell-based, human; conditions: HL-60 Resistant IC50 relative to HL-60 Sensitive
Source text: 2) Human Acute Promyelocytic Leukemia Cell Line Pair: HL-60 (Mitoxantrone-Sensitive) and HL-60/MX-2 (Mitoxantrone-Resistant)

[12] = tested on: HL-60/MX2 multidrug resistant; test: Cell growth inhibition assay, resazurin (Example 11); assay type: cell-based, human
Experimental: Human uterine sarcoma (MES-SA; CRL-1976), its multidrug resistant derivative (MES-SA/Dx5; CRL-1977), human acute promyelocytic leukemia cells (HL-60; CCL-240) and its multidrug resistant derivative (HL-60/MX2; CRL-2257) were purchased from ATCC and maintained in appropriate culture media. The cells were cultured in an incubator at 37° C. in 5% CO2 and 95% humidified air.
For cell growth inhibition assays, MES-SA and MES-SA/Dx5 cells were both seeded at 3×10^3 cells/well in 90 μl complete media into 96 well (Corning; 3904) black-walled, clear-bottom tissue culture plates and the plates were incubated overnight to allow cells to establish and enter log phase growth. HL-60 and HL-60/MX2 cells were both seeded at 5×10^4 cells/well in 90 μl complete media into 96 well plates on the day of compound addition. 20 mM stock solutions of the compounds were prepared in 100% DMSO and stored at −80° C. […] Ten μl volumes of the 10× serial dilutions were added to the test wells in triplicate and the plates returned to the incubator for 48 hours. The final concentration of DMSO was 0.25% in all samples.
Following 48 hours of drug exposure, 10 μl of 0.2 mg/ml resazurin (obtained from Sigma-Aldrich Chemical Co.) in Mg^2+, Ca^2+ free phosphate buffered saline was added to each well and the plates were returned to the incubator for 3-6 hours. […] Resazurin dye in medium without cells was used to determine the background, which was subtracted from the data for all experimental wells.
HL-60/MX2 is a multidrug resistant tumor cell line derived from the human promyelocytic leukemia cell line, HL-60 and expresses reduced topoisomerase II activity. The data presented in Table 20 summarize the growth inhibitory effects of NPI-2421, NPI-2463, NPI-2503, NPI-2504 and NPI-2506 against HL-60 and its multidrug resistant derivative HL-60/MX2. Mitoxantrone, the topoisomerase II targeting agent was included as a control.

[13] = Lung A549 (1 study), Taxotere Days 1, 3, 5 alone

Experimental for human hepatic P450s: In the recent his study, (±)-phenylahistin was treated with rat hepatic microsome or human hepatic P450s.

Compound: C=CC(C)(C)c1[nH]cnc1/C=c1\[nH]c(=O)/c(=C/c2ccccc2)[nH]c1=O [KPU-1, Dehydrophenylahistin]
- antifungal potency versus the sensitive T. mentagrophytes isolate [1]: weaker but more comparable to the others
- DNA laddering potency compared with KPU-2 [2]: much less potent
- MIC (Aspergillus fumigatus; A. fumigatus isolate #1): > 16 µg/mL
- MIC (Aspergillus fumigatus; A. fumigatus isolate #2): > 16 µg/mL
- antifungal potency versus T. rubrum (Trichophyton rubrum): significantly less potent than the other compounds
- MIC (Candida glabrata): > 68 µg/mL
- MIC (Candida albicans): > 68 µg/mL
- EC50 (HT-29 human colon cells; Homo sapiens, HT-29, Table 2, read-out: EC50 (nM) HT-29): 48 nM
- EC50 (HT-29 human colon cells; Homo sapiens, HT-29, Table 5, synthetic potent dehydroPLH derivatives, read-out: EC50): 48 nM
- EC50 (HT-29 human colon cells; Table 6, proliferation of HT-29 cells, read-out: EC50): 48 nM
- EC50 [3]: 4.7 nM
- IC50 [4]: 36 ± 12.8 nM

Compound: CC(=O)O[C@H]1C(=O)[C@@]2(C)[C@H]([C@H](OC(=O)c3ccccc3)[C@]3(O)C[C@H](OC(=O)[C@H](O)[C@@H](NC(=O)c4ccccc4)c4ccccc4)C(C)=C1C3(C)C)[C@]1(OC(C)=O)CO[C@@H]1C[C@@H]2O [Taxol, reference compound]
- microtubule depolymerization in HuVEC cells (HuVEC): did not induce microtubule depolymerization
- effect of Cyclosporin A (CsA) treatment ([5]; CsA pretreatment): restored the sensitivity to taxol
- potency in the resistant MES-SA/DX5 line vs the sensitive line ([5]; in words): virtually inactive
- Ratio No CsA [6]: 0.6 and 0.4
- IC50 ([7]; Homo sapiens, MCF7/Taxol, Table 15, read-out: MCF-7 Sensitive IC50): 2.6 nM
- potency in the sensitive MCF-7 cell line ([7]; in words): low nanomolar potency
- IC50 ([8]; Homo sapiens, NCI/ADR-RES, read-out: MCF-7/ADR Resistant IC 50 nM, Table 15): > 100 nM
- MCF-7/ADR Resistant Ratio to Sensitive ([8]; Table 15): >>38
- potency in resistant MCF-7/ADR vs sensitive MCF-7 ([8]; in words): virtually inactive in the resistant cell line

Compound: CC(=O)O[C@@]12CO[C@@H]1C[C@H](O)[C@@]1(C)C(=O)[C@H](O)C3=C(C)[C@@H](OC(=O)[C@H](O)[C@@H](NC(=O)OC(C)(C)C)c4ccccc4)C[C@@](O)([C@@H](OC(=O)c4ccccc4)[C@H]21)C3(C)C [Taxotere, reference compound]
- Tumor Regression (#/total) Reference Agent (MCF-7 human breast tumor): 0/20
- TGI vs NCI criterion [9]: did not reach the NCI established criterion for a positive effect
- Tumor Growth Inhibition (%) Reference Agent [10, 13]: 26%
- Tumor Regression (#/total) Reference Agent [10, 13]: 0/10
- TGI ([10]; taxotere alone): 26.1%

Compound: O=C1c2c(O)ccc(O)c2C(=O)c2c(NCCNCCO)ccc(NCCNCCO)c21 [mitoxantrone, Mitoxantrone, reference compound]
- IC50 (Jurkat cells; Homo sapiens, Jurkat, read-out: Cytotoxicity Potency IC50): 41 nM
- Cytotoxicity Efficacy % Cell Death (Jurkat cells; human): 99%
- Ratio to Sensitive [11]: 24.1
- Fold change ([12]; ratio of EC50 values (HL-60/MX2:HL-60)): 26
- less active against the resistant HL-60/MX2 cells ([12]; vs HL-60): ~26 times
- reduced susceptibility of the MES-SA/DX5 cell line ([5]; vs MES-SA): 20 fold

Compound: (±)-phenylahistin
- major metabolites P1 and P3, share of the recovered metabolites (human hepatic P450s): more than 60%
- metabolites detected (human hepatic P450s): at least seven metabolites were detected

Compound: phenylahistin [halimide, reference compound]
- DNA laddering potency compared with KPU-2 [2]: much less potent
